How the values were obtained:
Assay in all cases: relative viability (nuclei count vs DMSO), 5 days (fraction); higher = more cells survive
[1] = compound: CCn1c(-c2nonc2N)nc2cnc(Oc3cccc(NC(=O)c4ccc(OCCN5CCOCC5)cc4)c3)cc21 + CC(C)C[C@H](NC(=O)[C@H](Cc1ccccc1)NC(=O)c1cnccn1)B(O)O [Bortezomib] (partner 0.002 µM)
Method in brief: (§1)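 Lung cancer cell lines, seeded in 1536-well plates, were treated the following day by pin tool with a single drug or with five library-drug doses (not always all listed) in √10 steps on top of a fixed anchor-drug dose. Cells were fixed and nuclei stained in one step after 5 days, and nuclei were counted. Relative viability is the nuclei count for treated wells divided by that for vehicle wells, reported as medians of duplicate plates.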

[2] = compound: CCC1=CN=CN=C1N2CCN(CC2)CC3=NC4=C(N3)C=C(C=C4)C(F)(F)F + COc1cccc2cc(-c3nc([C@H]4CC[C@H](C(=O)O)CC4)n4ncnc(N)c34)[nH]c12 [OSI-027] (partner 0.5 µM)
Method in brief: as §1

[3] = compound: CCC1=CN=CN=C1N2CCN(CC2)CC3=NC4=C(N3)C=C(C=C4)C(F)(F)F + N=C(N)NC(=N)NCCc1ccccc1 [Phenformin] (partner 250 µM)
Method in brief: as §1

Mirin + Bortezomib = compound: N=C1NC(=O)/C(=C/c2ccc(O)cc2)S1 [Mirin] + CC(C)C[C@H](NC(=O)[C@H](Cc1ccccc1)NC(=O)c1cnccn1)B(O)O [Bortezomib] (partner 0.002 µM)
Method in brief: as §1

Cell Line | relative viability ([1]; first compound 0.04 µM) | relative viability ([1]; first compound 0.1265 µM) | relative viability ([1]; first compound 0.4 µM) | relative viability ([1]; first compound 1.265 µM) | relative viability ([1]; first compound 4 µM) | relative viability ([2]; first compound 0.04 µM) | relative viability ([2]; first compound 0.1265 µM) | relative viability ([2]; first compound 0.4 µM) | relative viability ([2]; first compound 1.265 µM) | relative viability ([2]; first compound 4 µM) | relative viability ([3]; first compound 0.04 µM) | relative viability ([3]; first compound 0.1265 µM) | relative viability ([3]; first compound 0.4 µM) | relative viability ([3]; first compound 1.265 µM) | relative viability ([3]; first compound 4 µM) | relative viability (Mirin + Bortezomib; first compound 0.25 µM) | relative viability (Mirin + Bortezomib; first compound 0.7906 µM) | relative viability (Mirin + Bortezomib; first compound 2.5 µM) | relative viability (Mirin + Bortezomib; first compound 7.906 µM) | relative viability (Mirin + Bortezomib; first compound 25 µM)
201T | 1.06 | 1.02 | 1.11 | 1.02 | 1.03 | 0.737 | 0.752 | 0.748 | 0.664 | 0.747 | 0.517 | 0.455 | 0.474 | 0.431 | 0.442 | 1.12 | 1.12 | 1.2 | 1.18 | 1.23
A549 | – | – | – | – | – | – | – | – | – | – | 0.178 | 0.143 | 0.191 | 0.161 | 0.164 | – | – | – | – | –
A-427 | 1.16 | 0.952 | 0.892 | 0.946 | 0.475 | 0.432 | 0.476 | 0.413 | 0.434 | 0.417 | 0.3 | 0.292 | 0.225 | 0.234 | 0.224 | 0.97 | – | 1.01 | 1.03 | 1.02
ABC-1 | 0.483 | 0.302 | 0.262 | 0.256 | 0.285 | 0.492 | 0.416 | 0.351 | 0.507 | 0.555 | 0.262 | 0.238 | 0.223 | 0.243 | 0.268 | 0.293 | 0.254 | 0.306 | 0.339 | 0.293
BEN | 0.747 | 0.655 | 0.321 | 0.306 | 0.303 | 0.299 | 0.276 | 0.317 | 0.223 | 0.256 | 0.254 | 0.255 | 0.229 | 0.253 | 0.265 | 0.638 | 0.779 | 0.967 | 0.625 | 0.548
CAL-12T | 1.23 | 1.08 | 0.834 | – | 0.678 | 0.481 | 0.691 | 0.545 | 0.577 | 0.627 | 0.551 | 0.616 | 0.626 | 0.548 | 0.643 | 0.921 | – | 0.967 | – | 1.43
COR-L23 | 1.08 | 0.646 | 0.238 | 0.185 | 0.193 | 0.777 | 0.783 | 0.605 | 0.635 | 0.7 | 0.387 | 0.411 | 0.473 | 0.409 | 0.521 | 1.1 | 1.08 | 1.03 | 1.06 | 0.968
COR-L 105 | 0.734 | 0.625 | 0.519 | 0.319 | 0.319 | 0.609 | 0.616 | 0.6 | 0.468 | 0.744 | 0.629 | 0.403 | 0.536 | 0.401 | 0.502 | 0.866 | 0.759 | 0.903 | 0.992 | 0.769
Calu-6 | 1.03 | 0.922 | 0.771 | 0.5 | 0.469 | – | – | – | – | – | – | – | – | – | – | 0.925 | 1.08 | 1.04 | 0.895 | 0.841
ChaGo-K-1 | 1.45 | 0.892 | 0.752 | – | 0.688 | 0.542 | 0.564 | 0.513 | 0.559 | 0.52 | 0.462 | 0.5 | 0.409 | 0.443 | 0.482 | 0.984 | – | 0.953 | 0.628 | 0.969
EBC-1 | 0.771 | 0.566 | 0.537 | 0.458 | 0.342 | – | – | – | – | – | – | – | – | – | – | 0.596 | 0.629 | 0.55 | 0.535 | 0.316
EKVX | 1.22 | 1.05 | 0.902 | 0.932 | 1.02 | 0.615 | 0.73 | 0.705 | – | 0.717 | 0.25 | 0.213 | 0.235 | – | 0.22 | 1.05 | 0.979 | 1 | 1.03 | 1.04
EMC-BAC-2 | 1.18 | 0.967 | 0.792 | 0.731 | 0.442 | 0.37 | 0.37 | 0.386 | – | 0.375 | 0.515 | 0.506 | 0.523 | – | 0.557 | 1.11 | 1.08 | 1.07 | 1.05 | 1.11
EPLC-272H | 1.02 | 1.21 | 0.841 | 0.645 | 0.783 | 0.255 | 0.302 | 0.264 | 0.308 | 0.276 | 0.308 | 0.333 | 0.299 | 0.325 | 0.337 | 0.962 | – | 1.04 | 0.714 | 0.826
H3255 | 1.03 | 0.9 | 0.728 | 0.526 | 0.531 | 0.559 | 0.633 | 0.515 | 0.566 | 0.552 | 0.398 | 0.42 | 0.347 | 0.352 | 0.392 | 0.778 | 0.725 | 0.837 | 0.698 | 0.769
HARA | 1.19 | 0.943 | 0.36 | 0.176 | 0.145 | 0.317 | 0.456 | 0.392 | – | 0.529 | 0.464 | 0.368 | 0.305 | – | 0.472 | 1.09 | 1.11 | 1.17 | 1.1 | 1.17
HCC-15 | 1.2 | 0.992 | 0.882 | 0.757 | 0.913 | 0.622 | 0.651 | 0.621 | 0.563 | 0.599 | 0.487 | 0.46 | 0.465 | 0.445 | 0.434 | 1.02 | 0.928 | 1.03 | 0.893 | 0.949
HCC-44 | 0.889 | 0.902 | 0.56 | 0.305 | 0.248 | 0.479 | 0.446 | 0.532 | 0.416 | 0.406 | 0.176 | 0.208 | 0.266 | 0.28 | 0.247 | 0.876 | 0.955 | 0.846 | 0.856 | 1.13
